Laboratory results: patent US20230293518A1 (Edgewise Therapeutics, Inc., priority 2020, published 2023)

Target: skeletal myofibrils (myosin ATPase)
Test: Skeletal Myofibril ATPase Assay
Type: biochemical
Experimental: Example 12. Skeletal Myofibril ATPase Assay
Overview: Myosin ATPase activity is assessed by using a coupled reaction system, in which ADP generated by the myosin ATPase function is coupled to the disappearance of NADH through the pyruvate kinase/lactate dehydrogenase (PK-LDH) system. ATPase activity produces ADP, which is used as a substrate for PK to produce pyruvate and regenerate ATP. The pyruvate is then used as a substrate by LDH to oxidize NADH to NAD+. The rate of the reaction is monitored through the time-dependent disappearance of NADH using absorbance at 340 nm. Inhibition of ATPase activity by the assayed compounds is indicated by a reduced rate of NADH loss, relative to vehicle-treated controls, over the experimental time window. To assess the selectivity of the assayed compounds for skeletal myofibrils, the compounds are counter-screened in cardiac myofibrils.
Materials: The following stock solutions and reagents were used in the Skeletal Myofibril ATPase Assay:
Stock Solutions of pCa buffer. Combine PIPES, CaCl2, and EGTA solutions with 70 mL of water. Adjust pH to 7.0 and bring final volume to 100 mL.
Buffer A & Buffer B. Buffers were stored on ice until use.
Skeletal Myofibril ATPase Assay Procedure: BSA, ATP, NADH, PEP, and DTT solutions were thawed at room temperature, then transferred to ice. Pellet-frozen myofibrils were transferred with approximately twice the required volume into a sufficiently large tube and capped. Myofibrils were thawed by rolling in a water bath for approximately 15 min at room temperature and cooled on ice. Buffers A and B were prepared by adjusting volumes as necessary for required number of wells and stored on ice. 0.5 μL of the compounds to be assayed were added into wells. 25 μL of Buffer A was dispensed into the wells, followed by 25 μL of Buffer B. The wells were measured for absorbance at 340 nm, using a kinetic protocol in which the wells are read every 1.5-2 min for 45 min. The slope of the data was approximated by subtracting the minimum absorbance value from the maximum value for each well. This was accomplished either in the SoftMax Pro software or in a spreadsheet program such as Excel. Using GraphPad Prism 8.0, the data was normalized by assigning a value of 100% to the 1% DMSO vehicle wells. Typically, a normalized 0% value was simply assigned to a (Max−Min) value of 0. The normalized data was fit to a Four Parameter Logistic sigmoidal equation, constraining the bottom to be 0 or greater. Compounds of Table 1, 2, and 3 were tested and results of the assay appear in Tables 4a-4c. A=IC50 is less than or equal to 10 μM; B═IC50 is greater than 10 μM and less than 100 μM; C═IC50 is greater than 100 μM.

| SMILES | IC50 (Table 4A) [µM] | IC50 (Table 4B) [µM] |
| --- | --- | --- |
| CCNC(=O)Cn1nc(-c2ccc(OC(F)F)[n+]([O-])c2)ccc1=O [Compound I-65, 2-(difluoromethoxy)-5-(1-(2-(ethylamino)-2-oxoethyl)-6-oxo-1,6-dihydropyridazin-3-yl)pyridine 1-oxide] | > 100 | – |
| O=C(Cn1nc(-c2ccc(OC(F)F)nc2)ccc1=O)NC1(c2ccccc2)CCC1 [Compound I-68, 2-(3-(6-(difluoromethoxy)pyridin-3-yl)-6-oxopyridazin-1(6H)-yl)-N-(1-phenylcyclobutyl) acetamide] | < 10 | – |
| O=C(Cn1nc(-c2ccc(OC(F)F)nc2)ccc1=O)NCc1ccc(Cl)cc1 [Compound I-70, N-(4-chlorobenzyl)-2-(3-(6-(difluoromethoxy)pyridin-3-yl)-6-oxopyridazin-1(6H)-yl)acetamide] | < 10 | – |
| O=C(Cn1nc(-c2cnc(OCCOC(F)(F)F)nc2)ccc1=O)NC1CCC1 [Compound I-72, N-cyclobutyl-2-(6-oxo-3-(2-(2-(trifluoromethoxy)ethoxy)pyrimidin-5-yl)pyridazin-1(6H)-yl)acetamide] | < 10 | – |
| CCCOc1ncc(-c2ccc(=O)n(CC(=O)NC3CCC3)n2)cn1 [Compound I-73, N-cyclobutyl-2-(6-oxo-3-(2-propoxypyrimidin-5-yl)pyridazin-1(6H)-yl)acetamide] | < 10 | – |
| CCNC(=O)Cn1nc(-c2ccc(NC3CC(F)(F)C3)nc2)ccc1=O [Compound I-74, 2-(3-(6-((3,3-difluorocyclobutyl)amino)pyridin-3-yl)-6-oxopyridazin-1(6H)-yl)-N-ethylacetamide] | 10 to 100 | – |
| CCNC(=O)Cn1nc(-c2ccc(OC3CC(F)(F)C3)nc2)ccc1=O [Compound I-75, 2-(3-(6-(3,3-difluorocyclobutoxy)pyridin-3-yl)-6-oxopyridazin-1(6H)-yl)-N-ethylacetamide] | 10 to 100 | – |
| O=C(Cn1nc(-c2ccc(OC(F)F)nc2)ccc1=O)NCc1cccc(Cl)c1 [Compound I-76, N-(3-chlorobenzyl)-2-(3-(6-(difluoromethoxy)pyridin-3-yl)-6-oxopyridazin-1(6H)-yl)acetamide] | 10 to 100 | – |
| CCNC(=O)Cn1nc(-c2cnc(OCC3CC(F)(F)C3)nc2)ccc1=O [Compound I-77, 2-(3-(2-((3,3-difluorocyclobutyl)methoxy)pyrimidin-5-yl)-6-oxopyridazin-1(6H)-yl)-N-ethylacetamide] | 10 to 100 | – |
| CCNC(=O)Cn1nc(-c2cnc(Oc3ccc(Cl)cc3)nc2)ccc1=O [Compound I-78, 2-(3-(2-(4-chlorophenoxy)pyrimidin-5-yl)-6-oxopyridazin-1(6H)-yl)-N-ethylacetamide] | 10 to 100 | – |
| CC(C)COc1ncc(-c2ccc(=O)n(CC(=O)NC3CCC3)n2)cn1 [Compound I-79, N-cyclobutyl-2-[3-[2-(2-methylpropoxy)pyrimidin-5-yl]-6-oxopyridazin-1-yl]acetamide] | > 100 | – |
| O=C(Cn1nc(-c2ccc(OC(F)F)cc2)ccc1=O)NCc1ccccc1Cl [II-3, N-(2-chlorobenzyl)-2-(3-(4-(difluoromethoxy)phenyl)-6-oxopyridazin-1(6H)-yl)acetamide] | – | < 10 |
| CCNC(=O)Cn1nc(-c2ccc(OC(F)(F)F)cc2)ccc1=O [II-5, N-ethyl-2-(6-oxo-3-(4-(trifluoromethoxy)phenyl)pyridazin-1(6H)-yl)acetamide] | – | < 10 |
| CCNC(=O)Cn1nc(-c2ccc(OCC(F)(F)F)cc2)ccc1=O [II-6, N-ethyl-2-(6-oxo-3-(4-(2,2,2-trifluoroethoxy)phenyl)pyridazin-1(6H)-yl)acetamide] | – | < 10 |
| CC(=O)Nc1ccc(-c2ccc(=O)n(CC(=O)NCc3ccccc3Cl)n2)cc1 [II-8, 2-(3-(4-acetamidophenyl)-6-oxopyridazin-1(6H)-yl)-N-(2-chlorobenzyl) acetamide] | – | < 10 |
| O=C(Cn1nc(-c2ccc(OC(F)F)cc2)ccc1=O)NC1CCC1 [II-9, N-cyclobutyl-2-(3-(4-(difluoromethoxy)phenyl)-6-oxopyridazin-1(6H)-yl)acetamide] | – | < 10 |
| CCNC(=O)Cn1nc(-c2ccc(OC(F)F)cc2)ccc1=O [II-10, 2-(3-(4-(difluoromethoxy)phenyl)-6-oxopyridazin-1(6H)-yl)-N-ethylacetamide] | – | < 10 |
| O=C(Cn1nc(-c2ccc(OC(F)F)cc2)ccc1=O)NCC(F)(F)F [II-11, 2-(3-(4-(difluoromethoxy)phenyl)-6-oxopyridazin-1(6H)-yl)-N-(2,2,2-trifluoroethyl) acetamide] | – | 10 to 100 |
| O=C(Cn1nc(-c2ccc(OC(F)F)cc2)ccc1=O)NCC(F)F [II-15, N-(2,2-difluoroethyl)-2-(3-(4-(difluoromethoxy)phenyl)-6-oxopyridazin-1(6H)-yl)acetamide] | – | 10 to 100 |

The remaining lines, values ahead:

| IC50 (Table 4A) [µM] | IC50 (Table 4B) [µM] | SMILES |
| --- | --- | --- |
| < 10 | – | CC[C@@H](C)NC(=O)Cn1nc(-c2ccc(OC(F)F)nc2)ccc1=O [Compound I-66, (R)-N-(sec-butyl)-2-(3-(6-(difluoromethoxy)pyridin-3-yl)-6-oxopyridazin-1(6H)-yl)acetamide] |
| < 10 | – | CC[C@H](C)NC(=O)Cn1nc(-c2ccc(OC(F)F)nc2)ccc1=O [Compound I-67, (S)-N-(sec-butyl)-2-(3-(6-(difluoromethoxy)pyridin-3-yl)-6-oxopyridazin-1(6H)-yl)acetamide] |
| < 10 | – | O=C(Cn1nc(-c2ccc(OC(F)F)nc2)ccc1=O)NCc1ccccc1Cl [Compound I-69, N-(2-chlorobenzyl)-2-(3-(6-(difluoromethoxy)pyridin-3-yl)-6-oxopyridazin-1(6H)-yl)acetamide] |
| < 10 | – | O=C(Cn1nc(-c2cnc(OCC(F)(F)F)nc2)ccc1=O)NC1CCC1 [Compound I-71, N-cyclobutyl-2-(6-oxo-3-(2-(2,2,2-trifluoroethoxy)pyrimidin-5-yl)pyridazin-1(6H)-yl)acetamide] |
| – | < 10 | CCNC(=O)Cn1nc(-c2ccc(OC(C)(F)F)cc2)ccc1=O [II-1, 2-(3-(4-(1,1-difluoroethoxy)phenyl)-6-oxopyridazin-1(6H)-yl)-N-ethylacetamide] |
| – | < 10 | CCNC(=O)Cn1nc(-c2ccc(NC(C)=O)cc2)ccc1=O [II-2, 2-(3-(4-acetamidophenyl)-6-oxopyridazin-1(6H)-yl)-N-ethylacetamide] |
| – | < 10 | CC(C)NC(=O)Cn1nc(-c2ccc(OC(F)(F)F)cc2)ccc1=O [II-4, N-isopropyl-2-(6-oxo-3-(4-(trifluoromethoxy)phenyl)pyridazin-1(6H)-yl)acetamide] |
| – | < 10 | CCNC(=O)Cn1nc(-c2ccc(OCC(F)F)cc2)ccc1=O [II-7, 2-(3-(4-(2,2-difluoroethoxy)phenyl)-6-oxopyridazin-1(6H)-yl)-N-ethylacetamide] |
| – | 10 to 100 | CCCNC(=O)Cn1nc(-c2ccc(OC(F)F)cc2)ccc1=O [II-12, 2-(3-(4-(difluoromethoxy)phenyl)-6-oxopyridazin-1(6H)-yl)-N-propylacetamide] |
| – | 10 to 100 | CC(C)CNC(=O)Cn1nc(-c2ccc(OC(F)F)cc2)ccc1=O [II-13, 2-(3-(4-(difluoromethoxy)phenyl)-6-oxopyridazin-1(6H)-yl)-N-isobutylacetamide] |
| – | 10 to 100 | CC(=O)Nc1ccc(-c2ccc(=O)n(CC(=O)NC(C)C)n2)cc1 [II-14, 2-(3-(4-acetamidophenyl)-6-oxopyridazin-1(6H)-yl)-N-isopropylacetamide] |
| – | 10 to 100 | CC(C)(C)NC(=O)Cn1nc(-c2ccc(OC(F)F)cc2)ccc1=O [II-16, N-(tert-butyl)-2-(3-(4-(difluoromethoxy)phenyl)-6-oxopyridazin-1(6H)-yl)acetamide] |
